Experimental data as given in ChEMBL document CHEMBL4507279, “Data for DCP probe BI-9627” (2021).

Key:
Details in all cases: Compound concentration 10.0 uM
[1] = target: D(2) dopamine receptor (Homo sapiens) (UniProt P14416); assay: D2S/HU Eurofins-Panlabs selectivity data (BI)
[2] = target: T1, D(4) dopamine receptor (Homo sapiens) (UniProt P21917); assay: D4.2/H Eurofins-Panlabs selectivity data (BI)
T1 sequence (whole entry): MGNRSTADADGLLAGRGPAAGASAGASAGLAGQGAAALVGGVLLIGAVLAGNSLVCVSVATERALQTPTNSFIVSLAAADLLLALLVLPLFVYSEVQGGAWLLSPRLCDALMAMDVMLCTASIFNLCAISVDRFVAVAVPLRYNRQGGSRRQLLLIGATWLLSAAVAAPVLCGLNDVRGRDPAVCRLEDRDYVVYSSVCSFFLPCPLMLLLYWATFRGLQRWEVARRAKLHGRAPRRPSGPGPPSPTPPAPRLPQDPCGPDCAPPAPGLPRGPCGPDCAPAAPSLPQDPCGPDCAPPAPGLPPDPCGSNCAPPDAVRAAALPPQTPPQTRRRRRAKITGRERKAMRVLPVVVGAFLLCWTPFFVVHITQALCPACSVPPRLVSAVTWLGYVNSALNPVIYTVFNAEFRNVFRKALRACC

[3] = target: Endothelin-1 receptor (Homo sapiens) (UniProt P25101); assay: ETA/HU Eurofins-Panlabs selectivity data (BI)
[4] = target: Sodium- and chloride-dependent GABA transporter 1 (Rattus norvegicus) (UniProt P23978); assay: GABATRANS/RA Eurofins-Panlabs selectivity data (BI)
[5] = target: Acetylcholine receptor subunit alpha (Homo sapiens) (UniProt P02708); assay: NACH/H Eurofins-Panlabs selectivity data (BI)
[6] = target: Kappa-type opioid receptor (Homo sapiens) (UniProt P41145)
Chain of Kappa-type opioid receptor (Homo sapiens) (P41145 whole entry): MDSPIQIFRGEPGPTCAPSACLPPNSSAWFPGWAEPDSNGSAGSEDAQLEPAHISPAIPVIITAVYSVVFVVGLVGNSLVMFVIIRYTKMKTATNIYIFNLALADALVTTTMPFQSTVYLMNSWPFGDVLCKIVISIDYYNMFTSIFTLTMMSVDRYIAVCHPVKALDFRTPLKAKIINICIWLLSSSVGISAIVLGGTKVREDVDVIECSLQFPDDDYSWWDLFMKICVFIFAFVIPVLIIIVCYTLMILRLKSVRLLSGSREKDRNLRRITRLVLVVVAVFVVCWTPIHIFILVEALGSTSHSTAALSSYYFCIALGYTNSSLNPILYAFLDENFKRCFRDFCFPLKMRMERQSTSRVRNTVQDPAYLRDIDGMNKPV

Chain of Endothelin-1 receptor (Homo sapiens) (P25101 whole entry): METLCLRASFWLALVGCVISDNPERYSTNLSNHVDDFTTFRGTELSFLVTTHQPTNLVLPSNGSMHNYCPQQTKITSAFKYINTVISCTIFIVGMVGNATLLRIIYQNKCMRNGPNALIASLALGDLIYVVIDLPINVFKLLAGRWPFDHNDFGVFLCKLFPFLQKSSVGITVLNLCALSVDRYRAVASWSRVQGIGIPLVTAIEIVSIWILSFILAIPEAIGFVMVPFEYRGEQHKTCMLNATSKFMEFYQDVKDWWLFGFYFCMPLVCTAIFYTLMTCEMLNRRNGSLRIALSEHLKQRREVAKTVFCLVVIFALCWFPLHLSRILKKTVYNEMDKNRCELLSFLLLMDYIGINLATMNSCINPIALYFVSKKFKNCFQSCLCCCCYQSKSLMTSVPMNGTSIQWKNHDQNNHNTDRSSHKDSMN
Chain of D(2) dopamine receptor (Homo sapiens) (P14416 whole entry): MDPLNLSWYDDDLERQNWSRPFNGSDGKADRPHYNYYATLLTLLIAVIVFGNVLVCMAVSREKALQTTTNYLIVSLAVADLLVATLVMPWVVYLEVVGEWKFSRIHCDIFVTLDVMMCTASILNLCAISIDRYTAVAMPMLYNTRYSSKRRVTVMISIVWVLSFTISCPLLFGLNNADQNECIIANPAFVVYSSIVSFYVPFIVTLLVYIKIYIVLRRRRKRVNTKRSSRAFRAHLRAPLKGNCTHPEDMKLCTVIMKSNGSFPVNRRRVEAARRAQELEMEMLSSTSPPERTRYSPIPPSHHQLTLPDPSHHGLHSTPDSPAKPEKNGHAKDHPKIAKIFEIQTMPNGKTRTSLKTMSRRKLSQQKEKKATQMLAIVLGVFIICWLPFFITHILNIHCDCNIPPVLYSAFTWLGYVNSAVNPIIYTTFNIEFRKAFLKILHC
Chain of Acetylcholine receptor subunit alpha (Homo sapiens) (P02708 whole entry): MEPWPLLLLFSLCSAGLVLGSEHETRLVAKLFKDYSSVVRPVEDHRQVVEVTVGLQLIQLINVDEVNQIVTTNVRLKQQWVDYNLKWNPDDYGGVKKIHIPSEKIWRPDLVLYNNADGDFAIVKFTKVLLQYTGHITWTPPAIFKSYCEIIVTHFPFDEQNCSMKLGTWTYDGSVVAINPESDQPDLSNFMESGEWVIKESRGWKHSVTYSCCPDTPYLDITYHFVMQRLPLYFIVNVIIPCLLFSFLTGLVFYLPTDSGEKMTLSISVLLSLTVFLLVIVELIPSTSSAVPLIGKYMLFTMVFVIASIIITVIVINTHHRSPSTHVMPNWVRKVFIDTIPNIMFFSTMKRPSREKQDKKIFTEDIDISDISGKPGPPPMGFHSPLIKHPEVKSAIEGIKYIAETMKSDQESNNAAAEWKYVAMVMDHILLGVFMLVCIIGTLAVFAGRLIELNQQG

CC(=O)N1CCC(c2ccc(C(=O)NC(=N)N)cc2C(F)(F)F)CC1 [BI 9627]
inactive: residual activity [1] 110% | residual activity [2] 105% | residual activity [3] 103% | residual activity [4] 101% | residual activity [5] 102% | inhibition [6] 9.26%
